Results reported in paper PMC9728921, “Characterization of a KDM5 small molecule inhibitor with antiviral activity against hepatitis B virus” (PLOS ONE, 2022).

What was measured:
[1] = system: PHH or a panel of human cells; test: Cytotoxicity in PHH or in a panel of human cells (summary); format: cell-based; conditions: concentrations up to 57 μM
Cytotoxicity CC50, Huh-7 = format: cell-based; conditions: human, Huh-7 cells (hepatoma cell line)
From the text: a Values represent the geometric mean and multiplicative standard deviation of 3 – 5 primary human hepatocyte (PHH) donors or 5 – 10 independent experiments.
b MT-4: human T-lymphoblastoid cell line; PBMC: peripheral blood mononuclear cell; Gal-HepG2: galactose adapted human hepatoblastoma cell line; Huh-7: human hepatoma cell line; Gal-PC3: galactose adapted human prostate carcinoma cell line; MRC-5: Medical Research Council 5 embryonal lung fibroblast; NRVM: neonatal rat ventricular cardiomyocytes

HBV [2] = test: HBV antiviral activity in HBV-infected PHH (overall; HBsAg and HBeAg over time); format: cell-based, Hepatitis B virus
Protocol: (§1) Approximately 24 hours after plating, PHH were infected with HepAD38-derived GTD virus at 500 viral genome equivalents per cell in maintenance medium supplemented with 4% PEG 8000 (Promega, Madison, WI; V3011). For patient sera infections, PHH were infected with 6 μl of patient sera in maintenance medium supplemented with 4% PEG 8000. Infections were allowed to proceed for 20–24 hours before removing remaining extracellular virions by washing with maintenance medium three times.
For the pulse dose regimen, medium containing compound was removed after two hours incubation and replaced with fresh maintenance medium every three to four days. Cells in the pulse dose experiment received only one dose of compound (Day = 0).
(§2) Hepatitis B e antigen (HBeAg) and Hepatitis B surface antigen (HBsAg) were detected in culture media at the indicated time by ELISA or electrochemiluminescence assay (MSD). The HBeAg and HBsAg ELISAs were performed using the HBeAg ELISA kit (International Immuno-Diagnostics, Foster City, CA) and HBsAg ETI-MAK-2 plus kit (DiaSorin, Stillwater, MN), respectively according to the manufacturer’s instructions. Concentrations were calculated by interpolation from standard curves with purified HBeAg and HBsAg. The MSD assay was performed according to the manufacturer’s instructions (Meso Scale Diagnostics, Rockville, MD). Briefly, cultured supernatants were inactivated with 0.5% Triton X-100 (30 minutes at 37°C) and then transferred into plates pre-spotted with both an anti-HBeAg antibody (Genway Bio, San Diego, CA) and a custom anti-HBsAg antibody. The plates were then incubated for two hours at room temperature with gentle shaking, followed by a wash step in PBS with 0.5% Tween. MSD sulfate tags anti-A and anti-B (1 μg/mL each) were then added to the wells and the plates incubated for a further two hours at room temperature with gentle shaking, followed by another wash step in PBS with 0.5% Tween. A 2X solution of MSD T Buffer Read was then added and the plate was read on a Sector Imager 6000 plate scanner.

HBV [3] = test: Secreted HBeAg by immunoassay in HBV-infected PHH; format: cell-based; conditions: Hepatitis B virus
Protocol: as §1, with “times. […]” for “times.”
as §2
(§3) Antiviral activity of test compounds was determined from vRNA, vDNA, HBeAg, and HBsAg data by comparing compound-treated PHH to DMSO (vehicle)-treated PHH to generate a percent of DMSO control value (% DMSO control). The % DMSO control was calculated by the following equation: %DMSOControl=100xXc/XD where Xc is the signal from the compound-treated PHH and XD is the signal from the DMSO-treated PHH. The % DMSO control for vRNA, vDNA, HBeAg, HBsAg, GAPDH, or RPLP0 was plotted versus the log of each compound concentration in GraphPad Prism (version 6; Graphpad Software, LaJolla, CA) to generate dose-response curves. […] Dose-response curves were fitted using the nonlinear regression equation “log(agonist) versus response–variable slope (four parameters)” in GraphPad Prism to determine EC50 values.

HBV [4] = test: Secreted HBsAg by immunoassay in HBV-infected PHH; format: cell-based; conditions: Hepatitis B virus
Protocol: as §1, with “times. […]” for “times.”
as §2, §3

[5] = 10 μM every three to four days, three PHH donors
[6] = read-out: HBeAg EC50, PHH donor BCD, HBV GTD, treated every three to four days for 14 days
[7] = read-out: HBeAg EC50, PHH donor Hu276, HBV GTD, treated every three to four days for 14 days
[8] = read-out: HBeAg EC50, PHH donor Hu349, HBV GTD, treated every three to four days for 14 days
[9] = read-out: HBeAg EC50, PHH donor Hu4167, HBV GTD, treated every three to four days for 14 days
[10] = read-out: HBeAg EC50, PHH donor Hu7272, HBV GTD, treated every three to four days for 14 days
[11] = read-out: HBeAg EC50, PHH donor Hu8130, HBV GTD, treated every three to four days for 14 days
[12] = read-out: HBeAg EC50, PHH donor Hu8181, HBV GTD, treated every three to four days for 14 days
[13] = read-out: HBsAg EC50, PHH donor BCD, HBV GTD, treated every three to four days for 14 days
[14] = read-out: HBsAg EC50, PHH donor Hu276, HBV GTD, treated every three to four days for 14 days
[15] = read-out: HBsAg EC50, PHH donor Hu349, HBV GTD, treated every three to four days for 14 days
[16] = read-out: HBsAg EC50, PHH donor Hu4167, HBV GTD, treated every three to four days for 14 days
[17] = read-out: HBsAg EC50, PHH donor Hu7272, HBV GTD, treated every three to four days for 14 days
[18] = read-out: HBsAg EC50, PHH donor Hu8130, HBV GTD, treated every three to four days for 14 days
[19] = read-out: HBsAg EC50, PHH donor Hu8181, HBV GTD, treated every three to four days for 14 days

Row | SMILES | measurable cytotoxicity [1] | CC50 (Cytotoxicity CC50, Huh-7) [µM] | EC50 (HBV [3]; [6]) [µM] | EC50 (HBV [3]; [7]) [µM] | EC50 (HBV [3]; [8]) [µM] | EC50 (HBV [3]; [9]) [µM] | EC50 (HBV [3]; [10]) [µM] | EC50 (HBV [3]; [11]) [µM] | EC50 (HBV [3]; [12]) [µM] | EC50 (HBV [4]; [13]) [µM] | EC50 (HBV [4]; [14]) [µM] | EC50 (HBV [4]; [15]) [µM] | EC50 (HBV [4]; [16]) [µM] | EC50 (HBV [4]; [17]) [µM] | EC50 (HBV [4]; [18]) [µM] | EC50 (HBV [4]; [19]) [µM] | also measured
1 | CCN(CCN(C)C)C(=O)CNCc1cc(C(=O)O)ccn1 [GS-080] | neither GS-5801 nor GS-080 had measurable cytotoxicity | > 44 |  |  |  |  |  |  |  |  |  |  |  |  |  |  | 
2 | CCOC(=O)c1ccnc(CNCC(=O)N(CC)CCN(C)C)c1 [GS-5801] | neither GS-5801 nor GS-080 had measurable cytotoxicity | > 44 | 0.014 | 0.1 | 0.38 | 0.15 | 0.61 | 1.1 | 0.11 | 0.015 | 0.15 | 0.97 | 0.24 | 5.1 | 1.7 | 0.061 | time course throughout which antiviral activity was maintained (HBV [2]; [5]): 30 to 32 days; time to maximal HBsAg and HBeAg inhibition after initiation of treatment (HBV [2]; [5]): 12 to 17 days; time inhibition of HBeAg and HBsAg was sustained following a pulse dose (HBV [2]; single two-hour pulse dose, 10 μM, donor): up to 20 days; EC50 (HBV [3]; 336 h, read-out: EC50 range across genotypes, secreted HBeAg, range across genotypes, 14 days of dosing): 0.3 to 1.4 µM; EC50 (HBV [3]; 336 h, read-out: EC50 range for secreted HBeAg, range over the seven PHH donors tested, HBV GTD, Day 14): 0.014 to 1.1 µM; EC50 (HBV [3]; read-out: HBeAg EC50, PHH infected with HBV GTA, treated every three to four days for 13 days): 1.1 µM; EC50 (HBV [3]; read-out: HBeAg EC50, PHH infected with HBV GTD, treated every three to four days for 13 days (Table 3)): 0.3 µM; EC50 (HBV [3]; read-out: HBeAg EC50, PHH infected with HBV GTE, treated every three to four days for 13 days): 1.4 µM; EC50 (HBV [4]; 336 h, read-out: EC50, secreted HBsAg, across HBV genotypes (summary value), 14 days of dosing): 0.17 µM; EC50 (HBV [4]; 336 h, read-out: EC50 range across genotypes, secreted HBsAg, range across genotypes, 14 days of dosing): 0.036 to 3.1 µM; EC50 (HBV [4]; 336 h, read-out: EC50 range for secreted HBsAg, range over the seven PHH donors tested, HBV GTD, Day 14): 0.015 to 1.7 µM; EC50 (HBV [4]; read-out: HBsAg EC50, PHH infected with HBV GTA, treated every three to four days for 13 days): 0.036 µM; EC50 (HBV [4]; read-out: HBsAg EC50, PHH infected with HBV GTC, treated every three to four days for 13 days): 0.12 µM; EC50 (HBV [4]; read-out: HBsAg EC50, PHH infected with HBV GTD, treated every three to four days for 13 days (Table 3)): 0.22 µM; EC50 (HBV [4]; read-out: HBsAg EC50, PHH infected with HBV GTE, treated every three to four days for 13 days): 3.1 µM
3 | CCOC(=O)c1cc(CNCC(=O)N(CC)CCN(C)C)ncc1Br [GS-420] |  |  | > 10 | > 10 | > 10 | > 10 | > 10 | > 10 | > 10 | > 10 | > 10 | > 10 | > 10 | > 10 | > 10 | > 10 | HBV antiviral activity in PHH (HBV [2]; concentrations up to 10 μM): did not exhibit HBV antiviral activity
